Measurements: publication PMC2857344 (2010)

Legend:
[1] = system: WT 3MX-binding aptamer (RNA, aptamer) GGCGAUACCAGCCGAAAGGCCAUUGGAAGCGUC; assay: ITC; conditions: 100 mM NaCl, 10 mM MgCl2; 100 mM HEPES, 0.1 mM EDTA, pH 7.5, 25 °C
[2] = system: WT theophylline-binding aptamer (RNA, aptamer) GGCGAUACCAGCCGAAAGGCCCUUGGCAGCGUC; assay: ITC; conditions: 100 mM NaCl, 10 mM MgCl2; 100 mM HEPES, 0.1 mM EDTA, pH 7.5, 25 °C
[3] = system: P10 (3MX-binding aptamer) (RNA, aptamer, 2-aminopurine at 10 (replaces A10)) GGCGAUACCAGCCGAAAGGCCAUUGGAAGCGUC; assay: ITC; conditions: 100 mM NaCl, 10 mM MgCl2; 100 mM HEPES, 0.1 mM EDTA, pH 7.5, 25 °C
[4] = system: P27 (3MX-binding aptamer) (RNA, aptamer, 2-aminopurine at 27) GGCGAUACCAGCCGAAAGGCCAUUGGAAGCGUC; assay: steady-state 2-aminopurine fluorescence titration; conditions: 100 mM NaCl, 10 mM MgCl2; 100 mM HEPES, 0.1 mM EDTA, pH 7.5, 25 °C; 100 nM RNA
[5] = system: P10Z11 (theophylline-binding aptamer) (RNA, aptamer, 2-aminopurine at 10 (replaces A10); 7-deazaguanine at 11) GGCGAUACCAGCCGAAAGGCCCUUGGCAGCGUC; assay: ITC; conditions: 100 mM NaCl, 10 mM MgCl2; 100 mM HEPES, 0.1 mM EDTA, pH 7.5, 25 °C
[6] = system: P10 (theophylline-binding aptamer) (RNA, aptamer, 2-aminopurine at 10 (replaces A10)) GGCGAUACCAGCCGAAAGGCCCUUGGCAGCGUC; assay: ITC; conditions: 100 mM NaCl, 10 mM MgCl2; 100 mM HEPES, 0.1 mM EDTA, pH 7.5, 25 °C

Kd [1] [µM] | Kd [2] [µM] | Kd [3] [µM] | Kd [4] [µM] | Kd [5] [µM] | Kd [6] [µM] | SMILES
2.7 ± 2.0 | 1.6 ± 0.5 | 24 ± 5 | 3.6 ± 0.3 |  |  | Cn1c(=O)[nH]c(=O)c2[nH]cnc21
 | 0.86 ± 0.12 |  |  | 9.4 ± 0.7 | 9.4 ± 0.8 | Cn1c(=O)c2[nH]cnc2n(C)c1=O
